Where two headings read alike, the source gives them in different places.
Columns and labels:
tankyrase 2 (TNKS 2) = target: T1, tankyrase 2 (TNKS 2) (Homo sapiens, UniProt Q9H2K2); assay: Tankyrase inhibitory activity test (ELISA, self-polyADP ribosylation), tankyrase 2; type: biochemical; conditions: self-polyADP ribosylation
T1 construct: 613-1, 116aa; made in house; host or cells: cell-free protein synthesis system
Protocol: (§1) (Test Example 1) Tankyrase Inhibitory Activity Test
(§2) For each of the compounds obtained in Examples (the test target compounds), the tankyrase inhibitory activity (an inhibitory activity against tankyrase 1 (TNKS 1) and an inhibitory activity against tankyrase 2 (TNKS 2)) was evaluated by measuring the enzymatic activity of tankyrase 1 and the enzymatic activity of tankyrase 2 by the ELISA technique using self-polyADP ribosylation as an index. First, Flag-tag fusion tankyrase 1 (1,024-1,327aa, SAM+PARP) and tankyrase 2 (613-1, 116aa, ANK5+SAM+PARP) were each synthesized by a cell-free protein synthesis system and diluted with a Tris buffer (50 mM Tris-HCl (pH 8.0), 150 mM NaCl, 10% glycerol). Then, 50 μL of the diluted tankyrase 1 or tankyrase 2 was added to a plate on which the anti-FLAGM 2 monoclonal antibody was immobilized (Anti-FLAG high sensitivity M2 coated plate) (SIGMA Corporation), and was allowed to stand at 4° C. overnight. Thereafter, the plate was washed four times with a PBS buffer containing 0.1% Triton X-100 (PBST buffer).
(§3) Subsequently, the test target compound diluted with an assay buffer (50 mM Tris-HCl (pH 8.0), 4 mM MgCl2, 0.2 mM DTT) (using DMSO as a control) was added to each well of the plate and was allowed to stand at room temperature for 10 minutes. Thereafter, a biotin-labeled NAD solution (225 μM NAD, 25 μM 6-Biotin-17-NAD (Trevigen Inc.)) was added as a donor substrate and mixed with the resultant test target compound, and the reaction was allowed to proceed at 30° C. for 45 minutes. Instead of the biotin-labeled NAD solution, distilled water was added to blank wells. After the reaction, the plate was washed four times with the PBST buffer. Thereafter, HRP (horseradish peroxidase)-labeled streptavidin (Trevigen Inc.) diluted 1,000-fold with the PBS buffer was added to each well, and the reaction was allowed to proceed at room temperature for 20 minutes. After the plate was washed four times with the PBST buffer, a chemiluminescent substrate solution TACS-Sapphire (Trevigen Inc.) was added to each well and the reaction was allowed to proceed at room temperature for 20 minutes. Then, the chemiluminescence intensity was measured using a chemiluminescence measuring apparatus.
(§4) The residual enzyme activity in the presence of the test target compound was determined in accordance with the following formula. Based on the residual enzyme activity at multiple concentrations of the test target compound, an enzyme inhibition activity was calculated as a 50% inhibitory concentration (IC50 value) using data analysis software named Origin (LightStone Corp.).

[1] = system: human colorectal cancer cell line, COLO-320DM; assay: Cell proliferation inhibitory activity test (Celltiter-Glo Luminescent Cell Viability Assay); type: cell-based; conditions: COLO-320DM cells, 96 hours
Protocol: (Test Example 2) Cell Proliferation Inhibitory Activity Test
The cell proliferation inhibitory activity of the compound obtained in each of Examples against human colorectal cancer cell line, COLO-320DM was evaluated by Celltiter-Glo Luminescent Cell Viability Assay (Promega Corporation, G7573). The COLO-320 DM cells were cultured in a RPMI-1640 medium (Wako Pure Chemical Industries, Ltd., 189-02025) containing 10% fetal bovine serum and 2 mM of glutamine. The cultured cells were washed with PBS and then detached with trypsin/EDTA to prepare a cell solution containing 3×10^4 cells/mL.
Next, the cell solution was seeded in a 96 well microplate (Thermo/Nunc, 136101) in an amount of 70 μL/well and was cultured overnight under conditions at 37° C. with 5% CO2. On the next day, 10 μL/well of a solution in which the test target compound (DMSO solution) was diluted with the cell culture medium (a final DMSO concentration of 1%) was added and the reaction was allowed to proceed under conditions at 37° C. with 5% CO2 for 96 hours (a 1% DMSO solution was used as a control). Subsequently, 80 μL/well of Celltiter-Glo Luminescent Cell Viability Assay reagent (Promega Corporation, G7573) was added, followed by agitation for 2 minutes with a shaker under shielding with aluminum foil. Thereafter, the resultant solution was allowed to stand for reaction at room temperature for 10 minutes.
After that, the luminescent signal was measured with a luminometer (Biotech, Synergy). The cell proliferation inhibitory activity was evaluated by obtaining a percentage of a cell proliferation volume of each compound-added group with respect to a cell proliferation volume (100%) of a control group in which no test target component solution was added, and calculating a value of compound concentration (GI50) required to reduce the remaining cell volume to 50% of the remaining cell volume of the control. […] The results are shown in Tables 120 to 123 together with the results of the tankyrase inhibition activity test.

tankyrase 1 (TNKS 1) = target: T2, tankyrase 1 (TNKS 1) (Homo sapiens, UniProt O95271); assay: Tankyrase inhibitory activity test (ELISA, self-polyADP ribosylation), tankyrase 1; type: biochemical; conditions: self-polyADP ribosylation
T2 construct: 1,024-1,327aa; made in house; host or cells: cell-free protein synthesis system
T2 sequence (O95271 1024-1327): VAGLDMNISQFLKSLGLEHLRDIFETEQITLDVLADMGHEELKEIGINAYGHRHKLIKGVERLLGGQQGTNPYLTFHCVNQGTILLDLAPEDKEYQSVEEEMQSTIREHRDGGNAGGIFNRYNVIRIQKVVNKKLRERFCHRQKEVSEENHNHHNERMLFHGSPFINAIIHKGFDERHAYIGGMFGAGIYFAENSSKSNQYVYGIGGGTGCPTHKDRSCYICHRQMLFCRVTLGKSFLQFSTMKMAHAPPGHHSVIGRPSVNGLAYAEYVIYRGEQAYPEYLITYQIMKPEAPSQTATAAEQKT
Protocol: as §1, §2, §3, §4

[2] = ELISA, class symbols, read-out: TNKS2 (inhibitory activity against tankyrase 2, IC50 value)
[3] = class symbols, read-out: COLO-320 DM (cell proliferation inhibitory activity, GI50 value)
[4] = ELISA, class symbols, read-out: TNKS1 (inhibitory activity against tankyrase 1, IC50 value)
[5] = tankyrase 2, ELISA, read-out: TNKS2 inhibitory activity (IC50 class)
[6] = read-out: COLO-320 DM cell proliferation inhibitory activity (GI50 class)
[7] = tankyrase 1, ELISA, read-out: TNKS1 inhibitory activity (IC50 class)

T1 sequence (Q9H2K2 613-1166): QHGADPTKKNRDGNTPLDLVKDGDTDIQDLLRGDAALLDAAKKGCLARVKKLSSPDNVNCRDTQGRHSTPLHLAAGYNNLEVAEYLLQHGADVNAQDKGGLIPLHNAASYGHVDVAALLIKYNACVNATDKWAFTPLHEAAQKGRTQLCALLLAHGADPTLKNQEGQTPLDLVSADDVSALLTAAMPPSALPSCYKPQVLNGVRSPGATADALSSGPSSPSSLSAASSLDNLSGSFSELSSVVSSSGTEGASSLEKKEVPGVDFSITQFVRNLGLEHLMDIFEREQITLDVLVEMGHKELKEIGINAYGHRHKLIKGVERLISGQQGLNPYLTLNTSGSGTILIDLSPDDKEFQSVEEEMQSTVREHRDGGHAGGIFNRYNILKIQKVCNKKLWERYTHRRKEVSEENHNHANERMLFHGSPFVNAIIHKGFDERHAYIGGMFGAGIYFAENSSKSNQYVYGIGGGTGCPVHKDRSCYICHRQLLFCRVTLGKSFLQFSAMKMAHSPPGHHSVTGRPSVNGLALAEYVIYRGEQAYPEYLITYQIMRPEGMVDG

IC50 (tankyrase 2 (TNKS 2); [2]) [nM]	GI50 [1, 3] [nM]	IC50 (tankyrase 1 (TNKS 1); [4]) [nM]	IC50 (tankyrase 2 (TNKS 2); [5]) [nM]	GI50 [1, 6] [nM]	IC50 (tankyrase 1 (TNKS 1); [7]) [nM]	Structure (SMILES)
< 20	600 to 1000	< 20	–	–	–	CN1CCCc2c1nc(N1CCC3(CC1)C(=O)N(C)c1cc(OCC(=O)NS(C)(=O)=O)cc(F)c13)[nH]c2=O [Example 427, 2-{[4-fluoro-1-methyl-1′-(8-methyl-4-oxo-3,4,5,6,7,8-hexahydro-pyrido[2,3-d]pyrimi-din-2-yl)-2-oxospiro [indoline-3,4′-piperidin]-6-yl]oxy}-N-(methyl-sulfonyl)acetamide]
< 20	100 to 600	< 20	–	–	–	CN1CCCc2c1nc(N1CCC3(CC1)OC(=O)c1cc(N4CCN(CCO)CC4)cc(F)c13)[nH]c2=O [Example 440, 4-fluoro-6-[4-(2-hydroxyethyl)piper-azin-1-yl]-1′-(4-hydroxy-8-methyl-6,7-dihydro-5H-pyrido[2,3-d]pyrimi-din-2-yl)spiro[2-benzofuran-3,4′-piperidine]-1-one]
< 20	< 100	< 20	–	–	–	CN1CCCc2c1nc(N1CCC3(CC1)C(=O)N(C)c1cc(N4CCN(S(C)(=O)=O)CC4)cc(F)c13)[nH]c2=O [Example 461, 4-fluoro-1-methyl-1′-(8-methyl-4-oxo-3,4,5,6,7,8-hexahydropyrido[2,3-d]pyrimidin-2-yl)-6-(4-methylsulfonylpiperazin-1-yl)spiro[indole-3,4′-piperidine]-2(1H)-one]
< 20	600 to 1000	< 20	–	–	–	CN1CCCc2c1nc(N1CCC3(CC1)C(=O)N(C)c1cc(OCCN4CCCC4CO)cc(F)c13)[nH]c2=O (stereo not drawn) [Example 394, 4-fluoro-6-{2-[2-(hy-droxymethyl)pyrrolidin-1-yl]ethoxy}-1-methyl-1′-(8-methyl-4-oxo-3,4,5,6,7,8-hexahydropyrido [2,3-d]pyrimidin-2-yl)spiro [indoline-3,4′-piperidin]-2(1H)-one]
< 20	< 100	< 20	–	–	–	CN1CCCc2c1nc(N1CCC3(CC1)C(=O)N(C)c1cc(N4CCC(C(=O)O)CC4)cc(F)c13)[nH]c2=O [Example 422, 1-[4-fluoro-1-methyl-1′-(8-methyl-4-oxo-3,4,5,6,7,8-hexahydro-pyrido[2,3-d]pyrimi-din-2-yl)-2-oxospiro [indoline-3,4′-piperidin]-6-yl]piperidine-4-carboxylic acid]
–	–	–	20 to 200	600 to 1000	20 to 200	O=c1[nH]c(N2CCC3(CC2)CN(Cc2ccccc2F)c2cc(F)cc(F)c23)nc2c1CCCC2 [Example 341, 2-[4,6-difluoro-1-(2-fluorobenzyl)spiro [indoline-3,4′-piperidin]-1′-yl]-5,6,7,8-tetrahy-droquinazolin-4(3H)-one]
–	–	–	< 20	100 to 600	< 20	O=c1[nH]c(N2CCC3(CC2)CN(Cc2ccc(Cl)nc2)c2cc(F)cc(F)c23)nc2c1CCCC2 [Example 344, 2-{1-[(6-chloropyridin-3-yl)methyl]-4,6-di-fluorospiro[indoline-3,4′-piperidin]-1′-yl]-5,6,7,8-tetrahydroquin-azolin-4(3H)-one]
–	–	–	< 20	100 to 600	< 20	CN1CCCc2c1nc(N1CCC3(CC1)C(=O)N(C)c1ccccc13)[nH]c2=O [Example 292, 1-methyl-1′-(8-methyl-4-oxo-3,4,5,6,7,8-hexa-hydropyrido-[2,3-d]-pyrimidin-2-yl)-spiro[indoline-3,4′-piperidine]-2-one]
–	–	–	< 20	< 100	< 20	CN1CCN(c2cc(F)c3c(c2)N(C)C(=O)C32CCN(c3nc4c(c(=O)[nH]3)CCCN4C)CC2)CC1 [Example 387, 4-fluoro-1-methyl-1′-(8-methyl-4-oxo-3,4,5,6,7,8-hexahydropyrido [2,3-d]pyrimidin-2-yl)-6-(4-methylpiperazin-1-yl)spiro [indoline-3,4′-piperidin]-2-one]
< 20	100 to 600	20 to 200	–	–	–	CC(C)(O)CN1C(=O)C2(CCN(c3nc4c(c(=O)[nH]3)CCCN4)CC2)c2c(F)cccc21 [Example 452, 4-fluoro-1-(2-hy-droxy-2-methyl-propyl)-1′-(4-hydroxy-5,6,7,8-tetra-hydropyrido[2,3-d]pyrimidin-2-yl)spiro [indole-3,4′-piper-idine]-2-one]
< 20	100 to 600	< 20	–	–	–	CC(=O)N1CCN(c2cc(F)c3c(c2)N(C)C(=O)C32CCN(c3nc4c(c(=O)[nH]3)CCCN4C)CC2)CC1 [Example 403, 6-(4-acetylpiperazin-1-yl)-4-fluoro-1-methyl-1′-(8-methyl-4-oxo-3,4,5,6,7,8-hexahydropy-rido[2,3-d]pyrimidin-2-yl)-spiro [indoline-3,4′-piperidin]-2(1H)-one]
–	–	–	< 20	< 100	< 20	CN1CCCc2c1nc(N1CCC3(CC1)C(=O)N(C)c1cc(OCC4COC4)cc(F)c13)[nH]c2=O [Example 388, 4-fluoro-1-methyl-1′-(8-methyl-4-oxo-3,4,5,6,7,8-hexahydropyrido [2,3-d]pyrimidin-2-yl)-6-(oxetan-3-ylmethoxy) spiro[indoline-3,4′-piperidin]-2-one]
–	< 100	–	–	–	–	CN1CCCc2c1nc(N1CCC3(CC1)C(=O)N(CC(F)(F)F)c1cc(OCC(=O)O)cc(F)c13)[nH]c2=O [Example 408]
–	< 100	–	–	–	–	CN1CCCc2c1nc(N1CCC3(CC1)C(=O)N(C)c1cc(C4CCC(O)CC4)cc(F)c13)[nH]c2=O (stereo not drawn) [Example 468, 4-fluoro-6-(4-hydroxycyclohexyl)-1-methyl-1′-(8-methyl-4-oxo-3,4,5,6,7,8-hexahydropyrido[2,3-d]pyrimidin-2-yl)spiro[indole-3,4′-piperidine]-2(1H)-one]

Structure (SMILES)	IC50 (tankyrase 2 (TNKS 2); [2]) [nM]	GI50 [1, 3] [nM]	IC50 (tankyrase 1 (TNKS 1); [4]) [nM]	IC50 (tankyrase 2 (TNKS 2); [5]) [nM]	GI50 [1, 6] [nM]	IC50 (tankyrase 1 (TNKS 1); [7]) [nM]
CN1CCCc2c1nc(N1CCC3(CC1)C(=O)N(C)c1c(OCc4nnn[nH]4)ccc(Cl)c13)[nH]c2=O [Example 415, 4-chloro-1′-(4-hydroxy-8-methyl-6,7-dihydro-5H-pyrido[2,3-b]py-rimidin-2-yl)-1-meth-yl-7-(2H-tetrazol-5-yl-methoxy)spiro[indole-3,4′-piperidin]-2-one]	< 20	600 to 1000	< 20	–	–	–
CN1CCCc2c1nc(N1CCC3(CC1)C(=O)N(C)c1c(OC4CCOC4)ccc(Cl)c13)[nH]c2=O (stereo not drawn) [Example 433, 4-chloro-1′-(4-hydroxy-8-methyl-6,7-dihydro-5H-pyrido[2,3-d]pyrimidin-2-yl)-1-methyl-7-(oxolan-3-yloxy) spiro[indole-3,4′-piperidin]-2-one]	–	< 100	–	–	–	–
